Read-outs that look alike come from different tables or passages of the source. *1 amine or outer side, *2 acyl side, *3 side chain or, on linkers, in order; H or OH if unused. Where a SMILES comes first, the peptide text is derived from it. Bridges are numbered along the chain shown (N, C = ends). [ ]: non-standard residue; d: D form. The star is where a group is joined. Leu(3R-O(AcLeu(3R-OH))) = CC(=O)N[C@H](C(=O)O[C@H](C(C)C)[C@H](N)C(=O)O)[C@H](O)C(C)C; Leu(3R-OH,Nα-propionyl) = CCC(=O)N[C@H](C(=O)*)[C@H](O)C(C)C; X1 = CC(C)[C@@H](O[*:3])[C@H](N[*:1])C(=O)[*:2]; NMeT = CN[C@H](C(=O)O)[C@@H](C)O; dPhLac = O=C(O)[C@H](O)Cc1ccccc1; NMeA = CN[C@@H](C)C(=O)O; NMeDha = C=C(NC)C(=O)O
Target: T1, human Gα14 (Homo sapiens, UniProt O95837)
T1 construct: expressed in transfected cells; membrane preparations
T1 sequence (O95837 1-355): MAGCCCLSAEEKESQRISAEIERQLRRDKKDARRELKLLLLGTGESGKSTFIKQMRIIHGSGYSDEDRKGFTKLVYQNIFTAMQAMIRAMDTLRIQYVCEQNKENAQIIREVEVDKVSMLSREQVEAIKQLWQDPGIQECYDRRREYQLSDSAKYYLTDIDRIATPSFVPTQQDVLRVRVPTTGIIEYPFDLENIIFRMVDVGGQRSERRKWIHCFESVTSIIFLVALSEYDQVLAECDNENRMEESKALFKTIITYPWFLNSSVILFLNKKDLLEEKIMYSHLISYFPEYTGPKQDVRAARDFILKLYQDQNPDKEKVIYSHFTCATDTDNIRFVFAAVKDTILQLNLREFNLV
Experiment: Competition binding at membranes of HEK-CRISPR-Cas9-Gαq-KO cells expressing Gα14
Experimental: cDNAs encoding for the α‐subunits of the human G11, G14, G15 and mouse Gq guanine nucleotide‐binding proteins in a pcDNA3.1(+) vector were obtained from E. Kostenis. CRISPR/Cas9‐Gαq‐knockout (KO) HEK293 cells were from M. Yamaguchi. The protein sequences of the human and mouse Gαq proteins differ only by one amino acid in position 171 (alanine in human and serine in mouse). […]. After 16 hr, 3 ml of DMEM containing 10% FBS, 1% of a penicillin/streptomycin solution (final concentrations: penicillin = 100 U·ml^−1, streptomycin = 0.1 mg·ml^−1), and sodium butyrate (5 mM) was added to the packaging cells. They were kept at 32°C and 5% CO2 for 48 hr, during which the viral vectors containing the receptor sequence were produced and released into the surrounding medium. These were harvested, filtered ([…] filter pore diameter), and added to HEK293 cells that had previously been modified via CRISPR/Cas9 genome editing to lack Gαq expression. Polybrene solution (6 μl, 4 mg·ml^−1 in H2O, filtered) was added. After 2.5 hr, the virus‐containing medium was discarded, and DMEM supplemented with 10% FBS and 1% of a penicillin/streptomycin solution (final concentrations: penicillin = 100 U·ml^−1, streptomycin = 0.1 mg·ml^−1) was given to the cells. These were incubated for 2 days, followed by selection of successfully transfected cells with geneticin resistance by adding G418 (200 μg·ml^−1) to the medium. The cells were cultured in these media at 37°C and 10% CO2 until membrane preparations were generated.
Recombinant HEK cells were cultured to 70% of confluence. The culture medium was discarded, and cells were washed once with approximately 5 ml of PBS. Dishes were stored at −20°C until further use. After defrosting, cells were detached with a rubber scraper after adding 5‐mM Tris–HCl, 2‐mM EDTA, pH 7.4. The collected cell suspension was homogenized using an Ultra‐Turrax® for 1 min at a speed level of 4. The cell suspension was transferred into tubes and centrifuged for 10 min at 1,000 g, 4°C. The pellet (P1) was discarded, and the supernatant was centrifuged for 45 min at 48,400 g, 4°C. The resulting supernatant was discarded, and the pellet (P2) was resuspended in 50‐mM Tris–HCl, pH 7.4, and centrifuged again for 45 min at 48,400 g, 4°C. This step was repeated once again, and the suspension was subsequently homogenized using an Ultra‐Turrax® for 1 min at a speed level of 4 (IKA Laborechnik), transferred into cryovials, and stored at −80°C (for up to several months). […]
The experiments were performed in 50‐mM Tris–HCl buffer, pH 7.4. […] Non‐specific binding was determined in the presence of 5‐μM FR. […] Luma Safe® scintillation cocktail (2.5 ml) was added, and after 6 hr of incubation, the samples were counted for 1 min each, using a liquid scintillation counter (counting efficiency 53%). […]

In the case of `C=C1C(=O)N[C@@H](C)C(=O)N(C)[C@@H](C)C(=O)N[C@@H]([C@H](OC(=O)[C@@H](NC(=O)CC)[C@H](O)C(C)C)C(C)C)C(=O)N(C)[C@@H]([C@@H](C)OC)C(=O)O[C@H](C(C)C)[C@H](NC(C)=O)C(=O)O[C@H](Cc2ccccc2)C(=O)N1C` [FR, FR900359] (Ac-[X1][dPhLac][NMeDha]A[NMeA][X1](Leu(3R-OH,Nα-propionyl))[NMeT](Me); ester 1-C), the IC50 is reported as 10 nM and the “Pseudo-Bmax ± SD” value (FR versus [³H]PSB-15900 (5 nM), 37°C, G14) is reported as 4.37 ± 0.71 pmol/mg.
`C=C1C(=O)N[C@@H](C)C(=O)N(C)[C@@H](C)C(=O)N[C@@H]([C@H](OC(=O)[C@@H](NC(C)=O)[C@H](O)C(C)C)C(C)C)C(=O)N(C)[C@@H]([C@@H](C)OC)C(=O)O[C@H](C)[C@H](NC(C)=O)C(=O)O[C@H](Cc2ccccc2)C(=O)N1C` [YM, YM‐254890] (Ac-T[dPhLac][NMeDha]A[NMeA][Leu(3R-O(AcLeu(3R-OH)))][NMeT](Me); ester 1-C) was tested, and the “Pseudo-Bmax ± SD” value (YM versus [³H]PSB-16254 (5 nM), 37°C, G14) was 3.18 ± 0.48 pmol/mg and the IC50 (YM versus [³H]PSB-16254 (5 nM), 37°C, G14, read-out: pIC50 ± SD (converted)) was 6.61 nM.

Reference: PMC7070167, “Cell‐permeable high‐affinity tracers for Gq proteins provide structural insights, reveal distinct binding kinetics and identify small molecule inhibitors” (British Journal of Pharmacology, 2020)
